In US20250128203A1, “MODIFIED REDOX-ACTIVE SORBENTS FOR ELECTROCHEMICAL CARBON DIOXIDE SEPARATION” (The Johns Hopkins University, priority 2023, published 2025):
“And” between values parts separate entries of the source, which are not always exact repeats. Equal values may be shown once. Read-outs that look alike come from different tables or passages of the source.

How the values were obtained:
[1] = CO2 binding constant (KCO2) calculated from the shift of the second reduction peak in CV; settings: for K[CO2] / logK[CO2]: DMF; for ΔEpeak(2): difference between the second reduction peak potentials (IId·−/IId2−) in CO2 and N2
Description: (§1) Electrochemical measurements were conducted using a BioLogic VSP potentiostat (BioLogic Science Instruments). For the cyclic voltammetry measurements, glassy carbon (Ø=3 mm) was used as the working electrode, platinum wire was used as the counter electrode, silver wire was used as the pseudo-reference electrode and ferrocene was used as the internal reference. In a standard cyclic voltammetry measurement, the molecule of interest (2.5 mM) was dissolved in anhydrous DMF with 100 mM NBu4PF6 as the supporting salt. Typical cyclic voltammograms were collected at a scan rate of […]. To study the effects of ionic species on the redox behaviour of the sorbent molecules, 100 mM LiClO4, NaClO4, KClO4, NBu4ClO4, sodium triflate (NaOTf), or sodium bis(trifluoromethanesulfonyl)imide (NaTFSI) was used as the supporting electrolyte salt.
The CO2 binding constant (KCO2) was calculated by Eq 1: […]

[2] = Cyclic voltammetry of isoindigos in DMF (half-wave redox potentials under N2 or CO2); type: physicochemical; settings: for E1/2 in N2 (first): first half-wave potential vs. Fc^+/Fc; for E1/2 in N2 (first) / E1/2 in N2 (second) / E1/2 in CO2 (first or single) / E1/2 in CO2 (second): 2.5 mM in DMF; for E1/2 in N2 (first) / E1/2 in N2 (second): 0.1 M NBu4PF6, N2, 298 K; for E1/2 in N2 (second) / E1/2 in CO2 (second): second half-wave potential vs. Fc^+/Fc; for E1/2 in CO2 (first or single) / E1/2 in CO2 (second): 0.1 M NBu4PF6, CO2, 298 K; for E1/2 (IId/IId·−) in N2: Table 1, first electron transfer, N2, DMF
Description: as §1

[3] = UV-vis absorption, optical band gap; type: physicochemical; settings: UV-vis absorption (Kubelka-Munk spectra)
Description: UV-vis absorption spectra were recorded on a Thermo Scientific Genesys 10S UV-vis spectrophotometer.

[4] = DMF, cited from earlier work; for E1/2 (1) in CO2: first half-wave potential; for E1/2 (1) in CO2 / E1/2 (2) in CO2 / E1/2 (2) in N2: vs. Fc^+/Fc; for E1/2 (1) in CO2 / E1/2 (2) in CO2: under CO2; for E1/2 (2) in CO2 / E1/2 (2) in N2: second half-wave potential; for E1/2 (2) in N2: under N2
[5] = Chronoamperometry: reaction rate constant between isoindigo radical anion and CO2; settings: isoindigo 5 mM in DMF, 0.1 M NBu4PF6
Excerpt: In electrochemistry, the Cottrell equation describes the current response (i) when the potential is a step function in time (t):
where i is current, n is the number of electrons transferred per molecule, A is the area of the electrode, C*0 is the bulk concentration of the redox-active isoindigo molecule, D is the diffusion coefficient, and t is time. The expected current for a diffusion limited electrochemical process following an ECE (electron transfer, chemical reaction, electron transfer) mechanism at a plane electrode under diffusion-controlled conditions is:
where n1 and n2 are the number of electrons transferred in the first and second step, respectively, and kf is the forward reaction rate constant of the chemical reaction. Here, to calculate kf after the first electron transfer, n2 and n1 are set to 1. Eq 3 then becomes:
The integrated Cottrell equation relates total charge Q with time for chronoamperometry: […]
Then, the constant k can be calculated, here k is assumed constant:
To calculate kf, the constant k is calculated using Eq 5 using potentiostatic measurements. Plugging in Eq 6, and rearranging Eq 4 gives:
The data for determining kf is shown in FIGS. 22 to 25 using 5 mM sorbent molecules in 0.1 M NBu4PF6 DMF electrolyte. The value k was determined using data under N2; kf was obtained under 1 bar 20% CO2 (0.0396 M CO2 in solution).

| Compound | K[CO2] ([1]; 298 K) | logK[CO2] ([1]; 298 K) | ΔEpeak(2) [1] | E1/2 in N2 (first) [2] | E1/2 in N2 (second) [2] | E1/2 in CO2 (first or single) ([2]; vs. Fc^+/Fc) | Optical band gap [3] | logKCO2 [4] | E1/2 (1) in CO2 [4] | E1/2 (2) in CO2 [4] | E1/2 (2) in N2 [4] | further results |
| --- | --- | --- | --- | --- | --- | --- | --- | --- | --- | --- | --- | --- |
| O=C1C(Cl)=C(Cl)C(=O)C(Cl)=C1Cl [BQ-Cl4] | – | – | – | – | – | – | – | 1.28 | −0.48 V | −1.38 V | −1.42 V | – |
| O=C1C(Cl)=C(Cl)C(=O)c2ccccc21 [p-NQ-Cl2] | – | – | – | – | – | – | – | 2.73 | −0.9 V | −1.63 V | −1.75 V | – |
| O=C1c2ccccc2C(=O)c2ccccc21 [AQ, anthraquinone] | – | – | – | – | – | – | – | 13.39 | −1.4 V | −1.4 V | −2.15 V | logKCO2 ([4]; listed as anthraquinone): approximately 13.4 |
| CC1=C(C)C(=O)C(C)=C(C)C1=O [DBQ] | – | – | – | – | – | – | – | 17.61 | −1.39 V | −1.39 V | −2.39 V | – |
| COc1ccc2c(c1)/C(=C1\C(=O)Nc3ccc(OC)cc31)C(=O)N2 [55DMIId, 5,5′-Dimethoxylisoindigo] | 1.13e+09 M⁻¹ | 9.05 | 0.494 V | −1.29 V and −1.29, V | −1.76 V | −1.2 V | 1.78 eV | – | – | – | – | logK[CO2] ([1]; Table 1): 9.05; E1/2 (IId/IId·−) in N2 [2]: −1.29 V vs. Fc^+/Fc |
| O=C1C=CC(=O)C=C1 [BQ] | – | – | – | – | – | – | – | 18.12 | −0.95 V | −0.95 V | −1.98 V | – |
| COC(=O)c1ccc2c(c1)NC(=O)/C2=C1/C(=O)Nc2cc(Br)ccc21 [6B6MCIId, Methyl 6-bromoisoindigo-6′-carboxylate] | 8.34e+08 M⁻¹ | 8.92 | 0.486 V | −1.05, V | −1.55 V | −1.05 V | 2.02 eV | – | – | – | – | – |
| O=C1c2ccccc2C(=O)c2cc(Cl)ccc21 [AQ-Cl] | – | – | – | – | – | – | – | 2.73 | −1.25 V | −1.88 V | −2 V | – |
| O=C1C=CC(=O)c2ccccc21 [p-NQ] | – | – | – | – | – | – | – | 14.74 | −1.23 V | −1.23 V | −2.06 V | – |
| CCCOC(=O)c1ccc2c(c1)C(=O)c1ccccc1C2=O [AQ-COO- C3H7] | – | – | – | – | – | – | – | 2.56 | −1.29 V | −1.89 V | −2 V | – |
| O=C1C=C(Cl)C(=O)C(Cl)=C1 [BQ-Cl2] | – | – | – | – | – | – | – | 1.86 | −0.7 V | −1.59 V | −1.66 V | – |
| CCCOc1ccc2c(c1)C(=O)c1ccccc1C2=O [AQ-O-C3H7] | – | – | – | – | – | – | – | 11.70 | −1.55 V | −1.55 V | −2.2 V | – |
| O=C1Nc2ccccc2/C1=C1\C(=O)Nc2ccc(Br)cc21 [5BIId, 5-Bromoisoindigo] | 1.12e+09 M⁻¹ | 9.05 | 0.494 V | −1.19, V | −1.67 V | −1.11 V | 2.04 eV | – | – | – | – | logK[CO2] ([1]; Table 1): 9.05; E1/2 (IId/IId·−) in N2 [2]: −1.19 V vs. Fc^+/Fc; Experimental 1st half-wave potential in N2 ([2]; Table 5, vs. Fc^+/Fc): −1.19 V |
| CC(C)(C)C1=CC(=O)C=C(C(C)(C)C)C1=O [TBQ] | – | – | – | – | – | – | – | 18.29 | −1.25 V | −1.25 V | −2.29 V | – |

More lines, main results first:

| K[CO2] ([1]; 298 K) | logK[CO2] ([1]; 298 K) | ΔEpeak(2) [1] | E1/2 in N2 (first) [2] | E1/2 in N2 (second) [2] | E1/2 in CO2 (first or single) ([2]; vs. Fc^+/Fc) | Optical band gap [3] | Compound | logKCO2 [4] | E1/2 (1) in CO2 [4] | E1/2 (2) in CO2 [4] | E1/2 (2) in N2 [4] | further results |
| --- | --- | --- | --- | --- | --- | --- | --- | --- | --- | --- | --- | --- |
| 9.13e+09 M⁻¹ | 9.96 | 0.547 V | −1.14, V | −1.69 V | −1.13 V | 1.97 eV | O=C1Nc2ccc(F)cc2/C1=C1\C(=O)Nc2ccc(F)cc21 [55DFIId, 5,5′-Difluoroisoindigo] | – | – | – | – | – |
| 4.45e+08 M⁻¹ | 8.65 | 0.470 V | −1.08 V and −1.08, V | −1.55 V | −1.08 V | 1.71 eV | COc1ccc2c(c1)/C(=C1\C(=O)Nc3ccc([N+](=O)[O-])cc31)C(=O)N2 [5M5NIId, 5-Methoxyl-5′-nitroisoindigo] | – | – | – | – | – |
| 4.19e+06 M⁻¹ | 6.62 | 0.350 V | −1.23, V | −1.80 V | −1.16, V | 2.00 eV | CCCCC(CC)CN1C(=O)/C(=C2/C(=O)N(CC(CC)CCCC)c3ccccc32)c2ccccc21 (stereo not shown) [NNDEHIId, N,N′-Di-(2-ethylhexyl)-isoindigo] | – | – | – | – | E1/2 in CO2 (second) [2]: −1.45 V |
| 2.17e+10 M⁻¹ | 10.3 | 0.570 V | −1.10, V | −1.68 V | −1.1 V | 2.02 eV | O=C1Nc2cc(F)c(F)cc2/C1=C1\C(=O)Nc2cc(F)c(F)cc21 [5566TFIId, 5,5′,6,6′-Tetrafluoroisoindigo] | – | – | – | – | – |
| 750 M⁻¹ | 2.87 | 0.129 V | −1.09, V | −1.35 V | −1.06, V | 2.01 eV | O=C1Nc2ccccc2/C1=C1\C(=O)Nc2cc(C(=O)O)ccc21 [6CIId, Isoindigo-6-carboxylic Acid] | – | – | – | – | E1/2 in CO2 (second) [2]: −1.18 V |
| 41500 M⁻¹ | 4.62 | 0.232 V | −0.93 V and −0.93, V | −1.40 V | −0.94, V | 2.08 eV | COC(=O)c1ccc2c(c1)NC(=O)/C2=C1/C(=O)Nc2ccc([N+](=O)[O-])cc21 [5N6MCIId, Methyl-5-nitroisoindigo-6-carboxylate] | – | – | – | – | E1/2 in CO2 (second) [2]: −1.15 V |
| 74800 M⁻¹ | 4.48 | 0.247 V | −1.07, V | −1.61 V | −1.08, V | 2.02 eV | CCCN1C(=O)/C(=C2/C(=O)N(CCC)c3cc(Br)ccc32)c2ccc(Br)cc21 [NNDPr66DBIId, N,N′-Dipropyl-6,6′-dibromoisoindigo] | – | – | – | – | logK[CO2] ([1]; Table 1): 4.87; E1/2 (IId/IId·−) in N2 [2]: −1.07 V vs. Fc^+/Fc; E1/2 in CO2 (second) [2]: −1.34 V; kbimolecular ([5]; first CO2 binding): 3.3 M⁻¹ s⁻¹ and 3.31 M⁻¹ s⁻¹; kf (20% CO2) ([5]; forward rate constant, 20% CO2): 0.131 s⁻¹ |
| 7.63e+08 M⁻¹ | 8.88 | 0.484 V | −1.08 V and −1.08, V | −1.57 V | −1.08 V | 2.07 eV | O=C1Nc2ccccc2/C1=C1\C(=O)Nc2ccc([N+](=O)[O-])cc21 [5NIId, 5-Nitroisoindigo] | – | – | – | – | – |
| 6.25e+09 M⁻¹ | 9.8 | 0.538 V | −1.21, V | −1.75 V | −1.14 V | 2.05 eV | O=C1Nc2ccccc2/C1=C1\C(=O)Nc2cc(Br)ccc21 [6BIId, 6-Bromoisoindigo] | – | – | – | – | – |
